Measured values as given in patent US20260345649A1, “PHARMACEUTICAL COMPOSITION FOR DESTRUCTION OF TUMOR BLOOD VESSELS” (SAMSUNG MEDICAL FOUNDATION, priority 2022, published 2026).

Columns and labels:
HUVEC [1] = test: Intracellular ROS generation in HUVEC (DCF-DA staining); format: cell-based, human
Procedure: The effect of D-glucose on intracellular reactive oxygen species (ROS) generation in HUVEC was measured using the DCF-DA staining method. HUVEC cells (25,000 per well) were cultured in a 96-well microplate with a dark, clear bottom. After 24 hours of incubation, the cells were treated with D-glucose at concentrations of 10 mM, 25 mM, 50 mM, 100 mM, 125 mM, 150 mM, 200 mM, and 250 mM. Following drug treatment, the culture medium was removed, and the cells were washed with 100 μL/well of Hanks' Balanced Salt Solution (HBSS) buffer. After washing, 100 μL/well of diluted DCFDA was added, and the […]. The cells were then incubated in diluted DCFDA solution for 45 minutes at 37 °C in the dark. Following incubation, the DCFDA solution was removed, and 100 μL of HBSS buffer was added. Fluorescence was immediately measured using a fluorescence plate reader at Ex/Em=485/535 nm.
The effect of L-glucose on intracellular ROS generation was measured using the same method as for D-glucose.

HUVEC [2] = test: 5-FU cytotoxicity on HUVEC according to D-glucose or L-glucose concentration (MTS); format: cell-based, human
Procedure: An MTS cell proliferation assay was conducted to evaluate the cytotoxic effect of 5-FU on HUVEC according to D-glucose concentration under different pH conditions.
The cells were then incubated for an additional 24 hours in DMEM medium containing various concentrations of glucose.
To assess the cytotoxic effect of L-glucose on HUVEC, the experiment was conducted in the same manner as described in Example 2, Section 3.
To assess the cytotoxic effect of D-glucose or L-glucose on HUVEC, the experiment was conducted in the same manner as described in Example 2, Section 3.

HUVEC [3] = test: HUVEC cytotoxicity according to L-NMMA concentration (MTS); format: cell-based, human; conditions: L-NMMA alone, FIG. 19
Procedure: The cells were then incubated for an additional 24 hours in DMEM medium containing various L-NMMA concentrations. Following incubation, the cells were washed twice with PBS, and 100 μL of fresh DMEM growth medium was added. The cells were then further incubated for 48 hours.

blood pressure = conditions: administered into blood vessels; cited from earlier work
platelets = conditions: L-NMMA alone, physiological conditions; cited from earlier work
hexokinase = conditions: role: substrate; first enzyme in glycolysis; cited from earlier work
human body = conditions: in vivo; cited from earlier work
[4] = tested on: human gastric cancer cells; test: Human gastric cancer cell xenograft in nude mice, bevacizumab local injection; format: in vivo, nude mice (Crj: BALB/c-nu/nu), human tumor cells; conditions: 1 mg bevacizumab, three times at one-week intervals
Procedure: The animals used in the experiment were three male nude mice (Crj: BALB/c-nu/nu, male), each weighing approximately 30 g and five weeks old, produced by Orient. The mice underwent a one-week acclimatization period in the laboratory before use. Human gastric cancer cells (5×10^6 cells/100 μL in PBS) were xenografted into the subcutaneous fat layer on the dorsal side of each nude mouse. The tumor size was measured periodically, and drug administration was initiated when the tumor reached a diameter of 1 cm.
The experimental animals were administered 1 mg of bevacizumab by injecting 0.2 cc adjacent to the tumor three times at one-week intervals.

advanced gastric cancer = conditions: combined with fluoropyrimidine-cisplatin therapy; cited from earlier work
[5] = D-glucose, L-glucose and mixtures with 5-FU, FIG. 15

O=C[C@H](O)[C@@H](O)[C@H](O)[C@H](O)CO [D-glucose]
ROS generation with increasing concentration (HUVEC [1]; D-glucose 10 mM to 250 mM, FIG. 11A): increased | cell viability (HUVEC [2]; D-glucose at both 5 mM and 25 mM, FIG. 13): significantly reduced cell viability | cell viability (HUVEC [2]; [5]): significantly reduced cell viability

CN=C(N)NCCC[C@H](N)C(=O)O [L-NMMA, N^G-Methyl-L-arginine]
cell viability (HUVEC [3]): significantly reduced cell viability | blood pressure (blood pressure): effectively increases blood pressure | platelet activation in vivo (platelets): does not activate platelets in vivo

O=C[C@@H](O)[C@H](O)[C@@H](O)[C@@H](O)CO [L-glucose]
ROS generation with increasing concentration (HUVEC [1]; L-glucose, FIG. 11B): decreased | cell viability (HUVEC [2]; [5]): significantly reduced cell viability | cell viability, comparison among D-glucose, L-glucose and mixtures (HUVEC [2]; FIG. 15): more pronounced reduction in cell viability | cell viability (HUVEC [2]; L-glucose at both 5 mM and 25 mM, FIG. 14): significantly reduced cell viability | phosphorylation by hexokinase (hexokinase): not phosphorylated by hexokinase | toxicity to the human body (human body): non-toxic to the human body

bevacizumab: recombinant humanized monoclonal antibody designed to inhibit vascular endothelial growth factor (VEGF)
tumor size for the following two months [4]: did not change | tumor size in the third month [4]: began to increase | tumor size four weeks after drug administration compared to before injection ([4]; P>0.05, FIG. 20): remained nearly unchanged | progression-free survival and overall response rate (advanced gastric cancer): improves progression-free survival and overall response rate
